This passage reports inhibition zone (IZ) results from ChEMBL document CHEMBL2375317, “Heterocyclic bismuth carboxylates based on a diphenyl sulfone scaffold: synthesis and antifungal activity against Saccharomyces cerevisiae” (Eur J Med Chem, 2013).

The test has as its system Saccharomyces cerevisiae. Nature of the test: Antifungal activity against Saccharomyces cerevisiae W303-1A at 30 mM after 48 hrs. Format: functional, organism-based.
Substance “10-(Azulene-1-carboxy)phenothiabismine 5,5-dioxide” yielded an inhibition zone (IZ) of 11 mm.
Turning to “10-(4-Aminobenzoyloxy)phenothiabismine 5,5-dioxide”, the inhibition zone (IZ) turned out to be 15 mm.
As for “10-(9-Anthranoyloxy)phenothiabismine 5,5-dioxide”, the inhibition zone (IZ) was found to be 14 mm.
Substance “10-(Azulene-6-carboxy)phenothiabismine 5,5-dioxide” gave an inhibition zone (IZ) of 12 mm.
The substance “10-(2-Naphthoyloxy)phenothiabismine 5,5-dioxide” gave an inhibition zone (IZ) of 12 mm.
“10-(1,3-Dibromoazulene-2-carboxy)phenothiabismine 5,5-dioxide” had an inhibition zone (IZ) of 12 mm.
The substance “10-(Cinnamoyloxy)phenothiabismine 5,5-dioxide” came in with an inhibition zone (IZ) of 14 mm.
Then “10-(N-Phthalylglycyloxy)phenothiabismine 5,5-dioxide”, with 12 mm.
In turn, “10-(1,3-Dichloroazulene-2-carboxy)phenothiabismine 5,5-dioxide” came in with an inhibition zone (IZ) of 13 mm.
Substance “10-(4-Acetoxybenzoyloxy)phenothiabismine 5,5-dioxide” returned an inhibition zone (IZ) of 17 mm.
In turn, “2,8-Dihydroxy-10-chlorophenothiabismine 5,5-dioxide” displayed an inhibition zone (IZ) of 8 mm.
The same measure for “10-(Azulene-2-carboxy)phenothiabismine 5,5-dioxide”: 14 mm; for “10-(Benzoyloxy)phenothiabismine 5,5-dioxide”: 17 mm.
“10-(4-Nitrobenzoyloxy)phenothiabismine 5,5-dioxide” gave an inhibition zone (IZ) of 17 mm.
The substance “10-chlorobenzo[b][1,4]benzothiabismine 5,5-dioxide” gave an inhibition zone (IZ) of 18 mm.
Then “10-Chloro-2-phenylphenothiabismine 5,5-dioxide”, with 0 mm; and “10-(2-Acetoxybenzoyloxy)phenothiabismine 5,5-dioxide”, with 12 mm; and “10-(p-tolyl)benzo[b][1,4]benzothiabismine 5,5-dioxide”, with 0 mm.
As to “10-(1-Naphthoyloxy)phenothiabismine 5,5-dioxide”, the inhibition zone (IZ) was 13 mm.
The same measure for “10-Chloro-2-tert-butylphenothiabismine 5,5-dioxide”: 0 mm.
Turning to “10-(Indol-3-acetoxy)phenothiabismine 5,5-dioxide”, the inhibition zone (IZ) was found to be 13 mm.
The substance “tert-butyl-[2-[tert-butyl(dimethyl)silyl]oxy-10-chloro-5,5-dioxo-benzo[b][1,4]benzothiabismin-8-yl]oxy-dimethyl-silane” gave an inhibition zone (IZ) of 0 mm.
Then “10-(Nicotinoyloxy)phenothiabismine 5,5-dioxide”, with 14 mm.
